Test results published in patent US20150342893A1 (SIGMOID PHARMA LIMITED, priority 2014, published 2015).

Tests used:
[1] = Solubilisation measurements of celecoxib in vehicles (oils, surfactants, co-solvents); format: physicochemical
Experimental: Solubilisation studies were performed using a wide range of vehicles consisting of oils, surfactants and co-solvents. The vehicles used were Kolliphor® HS 15, Transcutol® P, Kolliphor® EL, Miglyol® 810N, Tween® 20 and Capryol® 90.
Celecoxib was added to measured quantities of the vehicles (excipients) in glass vials. These mixtures were stirred at room temperature on a magnetic stirrer; as an exception, the solubilisation measurements were performed at elevated temperatures in respect of vehicles which were solid at room temperature.

HT29 cells [2] = assay: MTT cell proliferation assay; format: cell-based; conditions: Homo sapiens, HT-29, 72 hrs, tested at 20, 30, 50 and 100 μM, read-out: IC50 dose (dose required to reduce cell proliferation by 50% compared to medium)
Experimental: HT29 is a COX-2 positive human colorectal adenocarcinoma cell line and is in particular a model for adenocarcinoma, especially COX-2 positive adenocarcinoma. […] The cells were grown in a humidified atmosphere containing 5% CO2. Cell proliferation was measured using the VybrantMTT assay kit according to the manufacturer's guidelines. HT29 cells (10,000 cells) cells were plated in 100 μl of complete McCoy's 5A media in 96-well tissue culture dishes. […] In the case of celecoxib dissolved in DMSO, the celecoxib was dissolved overnight in DMSO before treatment. Two control groups were employed, one which involved no treatment (referred to as media) and the other which involved treatment with DMSO alone. […] The absorbance (A) was determined in a BioRad 680 microplate reader (BioRad, USA) at 550 nm.

HT29 cells [3] = assay: Annexin V-PE / 7-AAD cell viability and apoptosis assay by flow cytometry; format: cell-based, human
Experimental: HT29 is a COX-2 positive human colorectal adenocarcinoma cell line and is in particular a model for adenocarcinoma, especially COX-2 positive adenocarcinoma. The HT29 cell line was grown in McCoy's 5A modified medium supplemented with 1.5 mM L-glutamine, 10% FBS (fetal bovine serum) and 1% penicillin/streptomycin. The cells were grown in a humidified atmosphere containing 5% CO2.
Two control groups were employed, one which involved no treatment (referred to as media) and the other which involved treatment with DMSO alone. Cell viability and the onset of apoptosis was monitored using an Annexin-PE Apoptosis Detection Kit which contains recombinant Annexin V-fluorochrome phycoerythrin (PE) conjugate and the vital dye 7-amino-actinomycin (7-AAD) followed by flow cytometry on a FACSCalibur system using CellQest software (BD Biosciences, USA) . Data for at least 10,000 cells were collected for each analysis made and two-dimensional plots of 7-AAD versus PE were generated.

[4] = cited from earlier work
[5] = at 20° C.; cited from earlier work
[6] = Precipitation of drug during minibead manufacture (surfactant phase in contact with gelatin phase); format: physicochemical; conditions: inhibitor added to celecoxib minibead formulation
Experimental: Minibeads containing celecoxib were prepared via a manual drop in oil method. The minibeads were manufactured by combining the surfactant phase (drug dissolved in vehicles) with a gelatin phase (mixture of gelatin, water, sorbitol and SDS) and mixing at approximately 60° C. Droplets of the mixture were then allowed to fall into a bath of cooling/hardening oil (Miglyol® 810N) at approximately 10° C. As the mixture droplets fall in air, coacervation occurs to form a coacervate suspension in which droplets of the surfactant phase are surrounded by a layer of gelatine (multiple coacervates exist within a single minibead). The dropping of the minibead into a cooling/hardening bath allows the minibeads to harden before being recovered for drying. […] A range of oils was investigated (olive oil, mineral oil and other medium chain triglycerides) for use as the cooling/hardening oil in the production of minibeads. […] The minibeads were then air dried for 24 hr (over this time the water in the formulation evaporated). In some of the formulations other components were added to the gelatin phase to prevent precipitation of drug during manufacturing and also to help maintain the minibead structure.
Similar formulations were produced in which the drug loading was increased to 9-10% w/w, however precipitation was evident for these formulations on contact of the surfactant phase with the gelatin phase. […]

Cc1ccc(-c2cc(C(F)(F)F)nn2-c2ccc(S(N)(=O)=O)cc2)cc1 [Celecoxib, celecoxib]
solubility of celecoxib in Capryol 90 ([1]; vehicle Capryol 90, range between transparent and cloudy): 58 to 64 mg/g | solubility of celecoxib in 2-(2-ethoxyethoxy)ethanol (Transcutol P) ([1]; vehicle Transcutol P): 345 to 390 mg/g | maximum solubility of celecoxib in ethanol ([1]; vehicle ethanol): 100 to 125 mg/g | IC50 (HT29 cells [2]): > 100 µM | % of cells that died by necrosis (HT29 cells [3]; 50 μM, 72 h): 13.96±2.48% | combined % of cells that died via apoptosis (late and early apoptosis) (HT29 cells [3]; 50 μM, 72 h): 17.02±1.63% | viability at 50 µM (HT29 cells [3]; Homo sapiens, HT-29, 72 h, n=6, read-out: % viable cells): 69 ± 2.71% | Log P [4]: 3.5 | aqueous solubility [5]: 3 to 7 µg/mL

CC(=O)Oc1c(C)c(C)c2c(c1C)CCC(C)(CCC[C@H](C)CCC[C@H](C)CCCC(C)C)O2 (stereo partly shown) [Vitamin E Acetate, vitamin E acetate]
Effect (potential precipitation inhibitor) [6]: Effective precipitation inhibitor but negative
